Results published in publication PMC11472310, “Distinctive Immune Signatures Driven by Structural Alterations in Desmuramylpeptide NOD2 Agonists” (Journal of Medicinal Chemistry, 2024).

Key:
hNOD2 = target: T1, hNOD2 (Homo sapiens, UniProt Q9HC29); assay: HEK-Blue NOD2 cell line reporter assay (NF-κB-inducible SEAP); format: cell-based; details: HEK-Blue NOD2 cells, 18 h, NF-κB transcriptional activity (SEAP); read-out: EC50 (nM), NOD2 agonistic activity
T1 construct: host or cells: HEK-Blue NOD2 cells (HEK293)
Procedure: To assess the NOD2 agonistic potential of the synthesized desmuramylpeptides at a cellular level, we employed the HEK-Blue NOD2 cell line reporter assay, a validated and commercially available method. All synthesized compounds were evaluated for their dose-dependent activities to establish their EC50 values.
The HEK-Blue NOD1 and NOD2 cell line reporter assay was generated from HEK293 cells through cotransfection of the hNOD1 or hNOD2 gene, respectively, along with an NF-κB-inducible secreted embryonic alkaline phosphatase (SEAP) reporter gene. Upon activation of NOD1 or NOD2, NF-κB triggers the production of SEAP, which can be quantitatively measured colorimetrically. […] After 18 h of incubation at 37 °C with 5% CO2, SEAP activity was measured spectrophotometrically by absorbance at 630 nm (BioTek Synergy microplate reader; Winooski, VT, USA). EC50 values were determined using Prism software (version 9; GraphPad Software, CA, USA). Each experiment was conducted in duplicate and repeated in at least two independent biological replicates.

PBMCs = assay: Direct cytotoxic effect of compounds on PBMCs (Sytox blue); format: cell-based
Procedure: Additionally, PBMCs and cancer cells alone were treated with desmuramylpeptides to assess any direct cytotoxic effects on these cells.
(§1) The PBMC cytotoxicity assays utilizing K562 cells were conducted following previously established methods, with some adjustments.[82] […] Meanwhile, K562 cells were stained with CFSE (Invitrogen, Carlsbad, CA, USA), washed twice with complete medium, and then added (1 × 10^4 cells per well) to the pretreated PBMCs to achieve a final effector cell to target tumor cell ratio of 40:1. Following a 4-h coincubation period at 37 °C with 5% CO2, cells were stained with Sytox blue dead cell stain (Invitrogen) and analyzed using an Attune NxT flow cytometer (Thermo Fisher Scientific, Waltham, MA, USA) along with FlowJo software (Tree Star, Inc., Ashland, OR, USA). Cells positive for both CFSE and Sytox blue were designated as dead K562 cells. PBMCs alone and CFSE-labeled cancer cells alone were also exposed to the compounds at equivalent concentrations and stained with Sytox blue to assess any direct cytotoxic effects of the compounds on PBMCs and cancer cells separately. Each experiment was conducted in duplicate and repeated in three independent biological replicates. Statistical analysis was performed using one-way ANOVA followed by Dunnett’s multiple comparisons test.

human PBMCs = assay: Cytokine release from peripheral blood mononuclear cells (LEGENDplex panel); format: cell-based; details: 18 h; for production of proinflammatory cytokines and chemokines including IL-6, IL-8 and MCP-1: 2 μM alone (no LPS)
Excerpt: The immunomodulatory effects of the selected desmuramylpeptides were examined in human primary peripheral blood mononuclear cells (PBMCs). This diverse mixture of immune cells provided a platform to investigate the effects of these NOD2 agonists within a physiologically relevant environment, encompassing other NOD2-interacting and downstream signaling proteins. […] Given that NOD2 activation often modulates the Toll-like receptor (TLR)-induced cytokine responses, we investigated the impact of combining desmuramylpeptides with lipopolysaccharide (LPS), a well-known TLR4 agonist, on cytokine secretion.[76]−[78]
The elicited cytokine profiles thus broadly reflect the structure–activity relationships obtained in the reporter gene assays.
Peripheral blood mononuclear cells were plated at a density of 1 × 10^6 cells/mL in 48-well plates containing 500 μL of growth medium. Cells were then treated with the compounds (2 μM) or the corresponding vehicle (0.1% DMSO), both in the absence and presence of LPS (10 ng/mL). Following an 18 h incubation period at 37 °C with 5% CO2, cell-free supernatants were collected and stored at −80 °C until analysis. […] Standard curves were constructed using recombinant cytokines provided in the kit. Data analysis was performed using Biolegend software Qognit and Prism (GraphPad, San Diego, CA, USA) software. The experiments were independently replicated four times. Statistical significance was determined using two-way analysis of variance (ANOVA) followed by Tukey’s multiple comparisons test.

K562 cancer cells = assay: PBMC cytotoxicity against K562 cancer cells (flow cytometry); format: cell-based; details: for cytotoxicity of PBMCs against K562 cells, cotreatment with LPS (relative to negative control) / Cytotoxicity (ratio to control), + LPS: 10 μM + LPS 1 μg/mL; for cytotoxicity of PBMCs against K562 cells, cotreatment with LPS (relative to negative control) / enhancement of cytotoxicity of PBMCs against K562 cells (relative to negative control): 18 h, then 4 h coincubation; for cytotoxicity of PBMCs against K562 cells, cotreatment with LPS (relative to negative control): 40:1; for Cytotoxicity (ratio to control), + LPS / Cytotoxicity (ratio to control): Table S2; for Cytotoxicity (ratio to control) / enhancement of cytotoxicity of PBMCs against K562 cells (relative to negative control): alone: compounds 10 μM, LPS 1 μg/mL, IL-2 200 U/mL; for enhancement of cytotoxicity of PBMCs against K562 cells (relative to negative control): effector:target 40:1
Procedure: In this study, we investigated the potential of desmuramylpeptides, both alone and in combination with LPS, to enhance the cytotoxic activity of PBMCs against cancer cells employing a flow-cytometry-based cytotoxicity assay based on coincubation of preactivated PBMCs with fluorescently labeled K562 cancer cells.[82] Among the diverse subpopulations within PBMCs, natural killer (NK) cells play a pivotal role in detecting and eliminating cancer cells. NOD2-mediated NK cell activity against cancer cells arises from both direct NOD2 agonist elicited cytolytic activity of NK cells[83] and indirect activation through cytokine release by other NOD2-responsive cells, such as monocytes, which comprise approximately 10% of PBMCs; such interactions potentially reinforce the immune response.[84] […] To that end, we utilized the entire PBMC population as effector cells rather than isolated NK cells, to mimic conditions more closely resembling the in vivo environment while K562 chronic myelogenous leukemia cells were used as the target cells in a 40:1 effector to target cell ratio.[87]
as §1

[1] = tested on: human blood monocyte subsets; assay: Monocyte conversion assay in PBMCs (CD14/CD16 flow cytometry); format: cell-based; details: 10 μM, 18 h, NT 19.5%
Excerpt: Engagement of NOD2 has been reported to increase the levels of an anti-inflammatory monocyte subset, denoted as patrolling monocytes (CD14^–, CD16^+2), thus exerting a counterintuitive role in inflammatory processes, while concomitantly increasing the levels of total blood monocytes (released from bone marrow).[18] […] This process involves a transition from the inflammatory monocytes, typified by CD14^+CD16^–, through an intermediate subset of CD14^+CD16^+ monocytes. […] To recapitulate this phenomenon, we modified the reported procedure and employed PBMCs in lieu of isolated monocytes. Identification of human blood monocyte subsets was achieved through flow cytometry, utilizing the expression of CD14 and CD16 markers as distinguishing criteria. […] Similar to what has been reported (e.g., inactivity of murabutide),[18] also in our case not all NOD2 agonists were equally endowed with the ability to generate patrolling monocytes.
The monocyte conversion assay was conducted following previously established methods, with some adjustments.[18] Peripheral blood mononuclear cells were plated at a density of 3 × 10^6 cells/mL in 24-well plates containing 700 μL of growth medium. Cells were then treated with MDP and desmuramylpeptides (10 μM) or the corresponding vehicle (0.1% DMSO). Following an incubation period at 37 °C with 5% CO2, cells were transferred to 1.5 mL tube using phosphate-buffered saline (PBS) and scraper. The cells were blocked with human TruStain Fcx (BioLegend) and stained using antihuman CD16 antibodies/Alexa Fluor 488 (BioLegend); antihuman CD14 antibodies/PE-Cy7 (BioLegend); antihuman HLA-DR antibodies/APC-Fire750 (BioLegend) and blocked with TrueStain Monocyte Blocker. A viability dye Helix NP Blue (BioLegend) was added to the previous panel to discriminate live cells. PBMC were analyzed using an Attune NxT flow cytometer (Thermo Fisher Scientific, Waltham, MA, USA) and the FlowJo software (Tree Star, Inc., Ashland, OR, USA). Initially, lymphocytes (CD14^–, CD16^–) and NK (CD16^–, HLA-DR^–) were eliminated, after which classical, intermediate and nonclassical monocytes were specifically identified by selective gating strategy as follows: CD14^+ CD16^– (classical), CD14^+ CD16^+ (intermediate) and CD14^– CD16^+ (nonclassical). Each experiment was conducted in duplicate and repeated in three independent biological replicates.

BMDC/T-cell cocultures = assay: T cell cytokine release in BMDC/T-cell cocultures; format: cell-based, C57BL/6 mouse; details: 10 μM, 72 h coculture
Procedure: (§2) For this study, we narrowed down the selection of suitable desmuramylpeptides even further. In order to assess the adjuvant potential of selected desmuramylpeptides with regard to their effect on DC-mediated activation of CD4^+ and CD8^+ T cells, we conducted an ex vivo antigen-presentation assay utilizing C57BL/6 mouse bone marrow-derived DCs (BMDCs). Upon stimulation with desmuramylpeptides at 10 μM, in conjunction with ovalbumin soluble protein (50 μg/mL), BMDCs were cocultured with carboxyfluorescein succinimidyl ester (CFSE)-labeled naïve ovalbumin-specific CD4^+ or CD8^+ T cells, which were isolated from splenocytes of OT II and OT I transgenic mice, respectively. […] Additionally, we investigated how the priming of T cells elicited by the tested compounds impacted the cytokine profiles secreted in BMDC/T-cell cocultures.
Following 72 h of coincubation with BMDCs (pretreated with desmuramylpeptides [10 μM] and washed), supernatants from CD4^+ and CD8^+ T cells were harvested as previously described. […] Standard curves were constructed using recombinant cytokines provided in the kit. Data analysis was conducted using FlowJo (Tree Star, Inc., Ashland, OR, USA) and Prism (GraphPad, San Diego, CA, USA) software. Each experiment was performed in duplicate and replicated in two independent biological runs.

[2] = tested on: CD4+ T cells cocultured with BMDCs; assay: BMDC antigen presentation to ovalbumin-specific CD4+ T cells (OT II); format: cell-based, C57BL/6 mouse; details: BMDCs pretreated 10 μM + ovalbumin 50 μg/mL 18 h, coculture 72 h; OVA-treated cells 63.8%
Procedure: as §2
CD4^+ and CD8^+ T cells were isolated from splenocytes of OT II and OT I transgenic mice using CD4^+ and CD8^+ T cell isolation kits (Miltenyi Biotec, Germany) following the manufacturer’s instructions. The purified T cells were labeled with CFSE (Invitrogen, Carlsbad, CA, USA) and subsequently washed. Next, 5 × 10^4 T cells were combined with 1 × 10^4 BMDCs/well (pretreated with desmuramylpeptides at 10 μM and 50 μg/mL ovalbumin [Invivogen, San Diego, CA, USA] for 18 h and then washed). Following a 72-h incubation period at 37 °C with 5% CO2, supernatants were harvested and stored at −80 °C for cytokine analysis. The cells were then stained with Fixable viability dye eFluor 780 (eBioscience, Thermo Fisher Scientific, MA, USA), anti-Thy1.2-PE-Cy7 antibodies (Biolegend, San Diego, CA, USA), anti-CD8-eFluor450 antibodies (eBioscience), anti-CD4-eFluor450 antibodies (eBioscience), and anti-CD25-APC antibodies (Biolegend) before analysis using a Beckman Coulter Cytoflex S flow cytometer (CA, USA) and FlowJo software (Tree Star, Inc., Ashland, OR, USA). Live Thy1.2+/CD4+ and Thy1.2+/CD8+ cells were assessed for CFSE dilution and CD25 expression. Each experiment was performed in duplicate and repeated in two independent biological replicates. Statistical significance was determined using paired t tests.

T1 sequence (Q9HC29 whole entry): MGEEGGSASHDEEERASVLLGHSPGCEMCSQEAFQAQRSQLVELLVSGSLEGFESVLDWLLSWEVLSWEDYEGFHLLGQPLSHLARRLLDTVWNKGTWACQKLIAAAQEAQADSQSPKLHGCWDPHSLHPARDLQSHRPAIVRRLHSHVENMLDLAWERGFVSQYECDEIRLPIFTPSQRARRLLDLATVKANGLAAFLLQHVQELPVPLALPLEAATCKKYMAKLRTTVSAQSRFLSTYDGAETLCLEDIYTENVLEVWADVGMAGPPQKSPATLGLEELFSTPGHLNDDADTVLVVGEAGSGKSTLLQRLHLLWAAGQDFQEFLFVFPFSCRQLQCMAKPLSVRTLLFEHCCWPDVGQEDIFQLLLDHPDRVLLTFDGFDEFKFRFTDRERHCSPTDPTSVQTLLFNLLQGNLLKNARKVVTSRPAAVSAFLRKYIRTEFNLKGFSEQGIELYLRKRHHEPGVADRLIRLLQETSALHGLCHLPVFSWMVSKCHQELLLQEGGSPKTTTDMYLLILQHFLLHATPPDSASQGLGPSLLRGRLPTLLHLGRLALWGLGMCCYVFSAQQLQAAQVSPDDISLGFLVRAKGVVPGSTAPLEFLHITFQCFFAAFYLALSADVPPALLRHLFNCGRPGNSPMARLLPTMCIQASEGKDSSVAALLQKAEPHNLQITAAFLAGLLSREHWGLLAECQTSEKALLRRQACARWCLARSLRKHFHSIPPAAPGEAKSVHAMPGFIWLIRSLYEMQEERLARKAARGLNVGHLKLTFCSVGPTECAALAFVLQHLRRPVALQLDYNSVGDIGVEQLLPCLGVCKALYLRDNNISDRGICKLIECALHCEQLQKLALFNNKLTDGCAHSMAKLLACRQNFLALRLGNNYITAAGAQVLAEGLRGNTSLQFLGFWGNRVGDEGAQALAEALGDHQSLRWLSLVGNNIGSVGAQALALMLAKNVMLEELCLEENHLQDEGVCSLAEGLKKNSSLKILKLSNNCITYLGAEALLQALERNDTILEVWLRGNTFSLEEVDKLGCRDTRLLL

Row | Structure (SMILES) | EC50 (hNOD2) | Percent of dead PBMCs (PBMCs; human, 18 h, 10 μM) | Percent of dead PBMCs, + LPS (PBMCs; human, 18 h, 10 μM) | levels of LPS-induced IL-10 (human PBMCs; 2 μM + LPS 10 ng/mL) | production of proinflammatory cytokines and chemokines including IL-6, IL-8 and MCP-1 (human PBMCs) | cytotoxicity of PBMCs against K562 cells, cotreatment with LPS (relative to negative control) (K562 cancer cells) | Cytotoxicity (ratio to control), + LPS (K562 cancer cells) | Cytotoxicity (ratio to control) (K562 cancer cells) | enhancement of cytotoxicity of PBMCs against K562 cells (relative to negative control) (K562 cancer cells) | levels of nonclassical monocytes [1] | levels of IL-6 and TNF-α secreted by CD4+ T cells (BMDC/T-cell cocultures) | Percent of dead PBMCs, + LPS (PBMCs; Table S2, 10 μM + LPS 1 μg/mL) | Percent of dead PBMCs (PBMCs; Table S2, alone: compounds 10 μM, LPS 1 μg/mL, IL-2 200 U/mL) | amounts of IL-1β, IL-6, IL-10, TNF-α and IFN-γ compared to the MDP/LPS combination (human PBMCs; 2 μM + LPS 10 ng/mL) | levels of secreted MCP-1 compared to the MDP/LPS combination (human PBMCs; 2 μM + LPS 10 ng/mL) | fraction of activated and proliferating CD4+ T-cells (CD25+, CFSE low) [2]
1 | CC(=O)N[C@H]1C(O)O[C@H](CO)[C@@H](O)[C@@H]1O[C@H](C)C(=O)N[C@@H](C)C(=O)N[C@H](CCC(=O)O)C(N)=O (mixture of isomers) [MDP, muramyl dipeptide, reference compound] | 205 ± 64 nM | 1.11% ± 0.15% | 7.95% ± 0.95% | amplified | minor increases | 2.71 fold | 2.71 ± 0.16 | 1.17 ± 0.07 | no activity | 31.5% | – | – | – | – | – | –
2 | CCOC(=O)[C@@H](CCC(=O)NC12C[C@H]3C[C@@H](C1)C[C@@H](C2)C3)NC(=O)[C@@H](NC(=O)CNC(=O)/C=C/c1ccc(O)c(OC)c1)C(C)C [Compound 28, Ethyl N^5-((3S,5S,7S)-Adamantan-1-yl)-N^2-((E)-3-(4-hydroxy-3-methoxyphenyl)acryloyl)glycyl-L-valyl-D-glutaminate] | > 10000 nM | – | – | opposite | smaller increases | 2.19 fold | 2.19 ± 0.07 | 0.91 ± 0.02 | devoid of the capacity to induce cytotoxicity | – | slightly increased | 10.44% ± 0.63% | 0.99% ± 0.21% | lesser amounts | on par | 67.0%
